From patent US6399773B1, “Compounds derived from an amine nucleus that are inhibitors of IMPDH enzyme” (Bristol-Myers Squibb Co., priority 1998, dated 2002) come the findings set out here.

Structures are written as SMILES.

In general, melting point refers to the temperature, or range, at which the solid turns liquid. On to `COc1cc(Nc2cc(-c3ccccc3)on2)ccc1-c1cnco1` [Example 31, N-[3-Methoxy-4-(5-oxazolyl)phenyl]-5-phenyl-3-isoxazolamine], for which the melting point was in the range of 173 to 175 °C.

`COc1cc(Nc2ncc(-c3ccccc3C(=O)O)o2)ccc1-c1cnco1` [Example 80, 2-[2-[[3-Methoxy-4-(5-oxazolyl)phenyl]amino]-5-oxazolyl]benzoic acid] returned a melting point of 271 to 274 °C.

In turn, `COc1cc(Nc2ncc(-c3ccccc3N(C)C(=O)CN3CCOCC3)o2)ccc1-c1cnco1` [Example 79, N-[2-[2-[[3-Methoxy-4-(5-oxazolyl)phenyl]amino]-5-oxazolyl]phenyl]-N-methyl-4-morpholineacetamide] returned a melting point of 179 to 181 °C.

`COc1cc(Nc2cccc(-c3ccccc3)c2)ccc1-c1cnco1` [Example 29, N-[3-Methoxy-4-(5-oxazolyl)phenyl][1,1′-biphenyl]-3-amine] returned a melting point of 171 to 173 °C.

Consider `COc1cc(Nc2nsc(-c3ccccc3)n2)ccc1-c1cnco1` [Example 30, N-[3-Methoxy-4-(5-oxazolyl)phenyl]-5-phenyl-1,2,4-thiadiazol-3-amine], for which the melting point lay in the range of 260 to 261 °C.

The molecule `COc1cc(Nc2ncc(-c3ccccc3)o2)ccc1-c1cnco1` [Example 34, N-[3-Methoxy-4-(5-oxazolyl)phenyl]-5-phenyl-2-oxazolamine] yielded a melting point of 212 to 215 °C.
